Columns and labels:
Format in all cases: in vivo
[1] = tested on: Smaller Tea Tortrix (Adoxophyes sp.); assay: Insecticidal effect on smaller tea tortrix (Test Example 3): tea leaves immersed in 50 ppm liquid chemical; details: smaller tea tortrix (Adoxophyes sp.) larvae, 8 days after inoculation, 25° C., humidity 70%
Method in brief: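 Tea leaves dipped about 30 seconds in 50 ppm compound preparation, air-dried, then infested with larvae and held at 25° C and 70% humidity. Dead and alive counted 8 days after inoculation; triplicate groups of 10 insects.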

[2] = tested on: Common Cutworm (Spodoptera litura); assay: Insecticidal effect on common cutworm (Test Example 2): cabbage leaf piece immersed in 50 ppm liquid chemical; details: common cutworm (Spodoptera litura) second-instar larvae, 8 days after inoculation, 25° C.
Method in brief: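 Cabbage leaf pieces (cv. Shikidori) dipped ~30 s in formulated compound at 50 ppm and air-dried. Second-instar larvae added, kept at 25° C. Dead and alive counted at 8 days to give % mortality, scored against a criterion scale; three groups of 10 insects.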

[3] = tested on: Diamond Back Moth (Plutella xylostella); assay: Insecticidal effect on diamond back moth (Test Example 1): egg-bearing Chinese cabbage seedling immersed in 50 ppm liquid chemical
Method in brief: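 Seedlings bearing 2-day-old eggs dipped about 30 s in 50 ppm formulated compound, air-dried, held at 25° C. Hatched larvae counted 6 days after immersion; mortality calculated and graded by criterion. Triplicate groups of 10 insects.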

| Compound | Insecticidal effect (mortality grade), Test Example 3 [1] | Insecticidal effect (mortality grade), Test Example 2 [2] | Insecticidal effect (mortality grade), Test Example 1 [3] |
| --- | --- | --- | --- |
| COc1ccccc1NS(=O)(=O)CC(C)NC(=O)c1c(I)cccc1C(=O)Nc1ccc(C(F)(C(F)(F)F)C(F)(F)F)cc1C (stereo not drawn) [1-108] | A (Mortality 100%) | A (Mortality 100%) | A (Mortality 100%) |
| Cc1cc(C(F)(C(F)(F)F)C(F)(F)F)ccc1NC(=O)c1cccc(I)c1C(=O)NC(C)CS(=O)(=O)Nc1cccc(F)c1 (stereo not drawn) [1-109] | A (Mortality 100%) | E (Mortality less than 50%) | A (Mortality 100%) |
| Cc1cc(C(F)(C(F)(F)F)C(F)(F)F)ccc1NC(=O)c1cccc(I)c1C(=O)NC(C)CS(=O)(=O)Nc1ccc(F)cc1 (stereo not drawn) [1-110] | E (Mortality less than 50%) | E (Mortality less than 50%) | A (Mortality 100%) |
| COc1ccc(NS(=O)(=O)CC(C)NC(=O)c2c(I)cccc2C(=O)Nc2ccc(C(F)(C(F)(F)F)C(F)(F)F)cc2C)cc1 (stereo not drawn) [1-111] | E (Mortality less than 50%) | E (Mortality less than 50%) | A (Mortality 100%) |
| CSc1ccc(NS(=O)(=O)CC(C)NC(=O)c2c(I)cccc2C(=O)Nc2ccc(C(F)(C(F)(F)F)C(F)(F)F)cc2C)cc1 (stereo not drawn) [1-112] | E (Mortality less than 50%) | E (Mortality less than 50%) | A (Mortality 100%) |
| CONS(=O)(=O)CC(C)NC(=O)c1c(I)cccc1C(=O)Nc1ccc(C(F)(C(F)(F)F)C(F)(F)F)cc1C (stereo not drawn) [1-116] | A (Mortality 100%) | D (Mortality 79–50%) | A (Mortality 100%) |
| CCN(CC)S(=O)(=O)CC(C)NC(=O)c1c(I)cccc1C(=O)Nc1ccc(C(F)(C(F)(F)F)C(F)(F)F)cc1C (stereo not drawn) [1-144] | A (Mortality 100%) | A (Mortality 100%) | A (Mortality 100%) |
| Cc1cc(C(F)(C(F)(F)F)C(F)(F)F)ccc1NC(=O)c1cccc(I)c1C(=O)N[C@@H](C)CS(=O)(=O)NCc1ccccc1 [1-146] | A (Mortality 100%) | A (Mortality 100%) | A (Mortality 100%) |
| CSC[C@H](C)NS(=O)(=O)C[C@H](C)NC(=O)c1c(I)cccc1C(=O)Nc1ccc(C(F)(C(F)(F)F)C(F)(F)F)cc1C [1-147] | A (Mortality 100%) | A (Mortality 100%) | A (Mortality 100%) |
| Cc1cc(C(F)(C(F)(F)F)C(F)(F)F)ccc1NC(=O)c1cccc(I)c1C(=O)N[C@@H](C)CS(=O)(=O)N[C@@H](C)C[S+](C)[O-] (stereo partly drawn) [1-148] | A (Mortality 100%) | A (Mortality 100%) | A (Mortality 100%) |
| Cc1cc(C(F)(C(F)(F)F)C(F)(F)F)ccc1NC(=O)c1cccc(I)c1C(=O)N[C@@H](C)CS(=O)(=O)N[C@@H](C)CS(C)(=O)=O [1-149] | A (Mortality 100%) | A (Mortality 100%) | A (Mortality 100%) |
| Cc1cc(C(F)(C(F)(F)F)C(F)(F)F)ccc1NC(=O)c1cccc(I)c1C(=O)NC(C)(C)CS(N)(=O)=O [1-175, 3-iodo-N^1-{2-methyl-4-[1,2,2,2-tetrafluoro-1-(trifluoromethyl)ethyl]phenyl}-N^2-(2-sulfamoyl-1,1-dimethylethyl)phthalamide] | A (Mortality 100%) | A (Mortality 100%) | A (Mortality 100%) |
| CNS(=O)(=O)CC(C)(C)NC(=O)c1c(I)cccc1C(=O)Nc1ccc(C(F)(C(F)(F)F)C(F)(F)F)cc1C [1-176] | A (Mortality 100%) | A (Mortality 100%) | A (Mortality 100%) |
| Cc1cc(C(F)(C(F)(F)F)C(F)(F)F)ccc1NC(=O)c1cccc(I)c1C(=O)NC(C)(C)CS(=O)(=O)N(C)C [1-177] | A (Mortality 100%) | A (Mortality 100%) | A (Mortality 100%) |
| CCNS(=O)(=O)CC(C)(C)NC(=O)c1c(I)cccc1C(=O)Nc1ccc(C(F)(C(F)(F)F)C(F)(F)F)cc1C [1-178] | A (Mortality 100%) | A (Mortality 100%) | A (Mortality 100%) |
| CCN(CC)S(=O)(=O)CC(C)(C)NC(=O)c1c(I)cccc1C(=O)Nc1ccc(C(F)(C(F)(F)F)C(F)(F)F)cc1C [1-179] | A (Mortality 100%) | A (Mortality 100%) | A (Mortality 100%) |
| CCCCNS(=O)(=O)CC(C)(C)NC(=O)c1c(I)cccc1C(=O)Nc1ccc(C(F)(C(F)(F)F)C(F)(F)F)cc1C [1-180] | A (Mortality 100%) | C (Mortality 89–80%) | A (Mortality 100%) |
| Cc1cc(C(F)(C(F)(F)F)C(F)(F)F)ccc1NC(=O)c1cccc(I)c1C(=O)NC(C)(C)CS(=O)(=O)N1CCCC1 [1-181] | A (Mortality 100%) | A (Mortality 100%) | A (Mortality 100%) |
| Cc1cc(C(F)(C(F)(F)F)C(F)(F)F)ccc1NC(=O)c1cccc(I)c1C(=O)NC(C)(C)CS(=O)(=O)NCc1ccccc1 [1-184] | A (Mortality 100%) | A (Mortality 100%) | A (Mortality 100%) |
| CCNS(=O)(=O)CCCC(C)(C)NC(=O)c1c(I)cccc1C(=O)Nc1ccc(C(F)(C(F)(F)F)C(F)(F)F)cc1C [1-200] | A (Mortality 100%) | A (Mortality 100%) | A (Mortality 100%) |
| CCN(CC)S(=O)(=O)CCCC(C)(C)NC(=O)c1c(I)cccc1C(=O)Nc1ccc(C(F)(C(F)(F)F)C(F)(F)F)cc1C [1-201] | A (Mortality 100%) | A (Mortality 100%) | A (Mortality 100%) |
| CCNS(=O)(=O)CC(C)NC(=O)c1ccccc1C(=O)Nc1ccc(C(F)(C(F)(F)F)C(F)(F)F)cc1C (stereo not drawn) [1-207] | E (Mortality less than 50%) | A (Mortality 100%) | A (Mortality 100%) |
| CCN(CC)S(=O)(=O)CC(C)(C)NC(=O)c1ccccc1C(=O)Nc1ccc(C(F)(C(F)(F)F)C(F)(F)F)cc1C [1-208] | A (Mortality 100%) | E (Mortality less than 50%) | A (Mortality 100%) |
| CCN(CC)S(=O)(=O)CC(C)NC(=O)c1c(Cl)cccc1C(=O)Nc1ccc(C(F)(C(F)(F)F)C(F)(F)F)cc1C (stereo not drawn) [1-211] | A (Mortality 100%) | A (Mortality 100%) | A (Mortality 100%) |
| CCNS(=O)(=O)CC(C)NC(=O)c1c(Br)cccc1C(=O)Nc1ccc(C(F)(C(F)(F)F)C(F)(F)F)cc1C (stereo not drawn) [1-212] | A (Mortality 100%) | A (Mortality 100%) | A (Mortality 100%) |
| Cc1cc(C(F)(C(F)(F)F)C(F)(F)F)ccc1NC(=O)c1cccc(Br)c1C(=O)NC(C)CS(=O)(=O)N(C)C (stereo not drawn) [1-213] | A (Mortality 100%) | A (Mortality 100%) | A (Mortality 100%) |
| CCN(CC)S(=O)(=O)CC(C)NC(=O)c1c(Br)cccc1C(=O)Nc1ccc(C(F)(C(F)(F)F)C(F)(F)F)cc1C (stereo not drawn) [1-214] | A (Mortality 100%) | A (Mortality 100%) | A (Mortality 100%) |
| CCCNS(=O)(=O)CC(C)NC(=O)c1c(Br)cccc1C(=O)Nc1ccc(C(F)(C(F)(F)F)C(F)(F)F)cc1C (stereo not drawn) [1-215] | A (Mortality 100%) | A (Mortality 100%) | A (Mortality 100%) |
| Cc1cc(C(F)(C(F)(F)F)C(F)(F)F)ccc1NC(=O)c1cccc(Br)c1C(=O)NC(C)CS(=O)(=O)NC(C)C (stereo not drawn) [1-216] | A (Mortality 100%) | A (Mortality 100%) | A (Mortality 100%) |
| CCCCNS(=O)(=O)CC(C)NC(=O)c1c(Br)cccc1C(=O)Nc1ccc(C(F)(C(F)(F)F)C(F)(F)F)cc1C (stereo not drawn) [1-217] | A (Mortality 100%) | A (Mortality 100%) | A (Mortality 100%) |
